Data taken from ChEMBL document CHEMBL1201862, “PubChem BioAssay data set” (2004).
The source made the active and inactive calls.

Tests used:
[1] = target: T1, RNA-binding protein pos-1 (Caenorhabditis elegans, UniProt G5EF15); experiment: disruptors of C. elegans POS-1 RNA interaction – biochemical, fluorescence polarization, dose response (AID 1964);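 note: purified POS-1 fused to maltose binding protein made in E. coli; potency of compounds blocking POS-1 binding to fluorescent RNA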
T1 sequence (G5EF15 whole entry): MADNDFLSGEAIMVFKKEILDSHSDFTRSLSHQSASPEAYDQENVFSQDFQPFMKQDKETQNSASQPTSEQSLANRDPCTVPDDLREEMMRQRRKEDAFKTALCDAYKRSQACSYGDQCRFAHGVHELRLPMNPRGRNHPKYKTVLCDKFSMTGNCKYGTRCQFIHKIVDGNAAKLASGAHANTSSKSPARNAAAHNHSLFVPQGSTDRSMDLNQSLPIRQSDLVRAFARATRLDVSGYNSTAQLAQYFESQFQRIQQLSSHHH

[2] = target: T2, Zinc finger protein mex-5 (Caenorhabditis elegans, UniProt Q9XUB2); experiment: potency of MEX-5 RNA-binding blockers – biochemical, C. elegans, fluorescence polarization, dose response (AID 1960)
T2 sequence (Q9XUB2 whole entry): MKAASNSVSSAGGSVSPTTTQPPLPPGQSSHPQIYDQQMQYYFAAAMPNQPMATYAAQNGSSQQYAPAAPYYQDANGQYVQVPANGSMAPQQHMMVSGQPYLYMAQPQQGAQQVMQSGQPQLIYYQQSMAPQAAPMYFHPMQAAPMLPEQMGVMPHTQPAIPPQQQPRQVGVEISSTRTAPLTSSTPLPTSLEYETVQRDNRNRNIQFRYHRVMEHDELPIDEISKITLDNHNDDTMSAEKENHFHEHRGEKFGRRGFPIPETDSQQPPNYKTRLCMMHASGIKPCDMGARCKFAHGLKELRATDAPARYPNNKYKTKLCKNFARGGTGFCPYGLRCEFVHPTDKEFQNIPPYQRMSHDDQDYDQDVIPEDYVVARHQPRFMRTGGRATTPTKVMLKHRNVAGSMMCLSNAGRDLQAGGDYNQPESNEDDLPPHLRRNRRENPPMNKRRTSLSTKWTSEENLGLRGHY

[3] = target: T3, Polyadenylate-binding protein 1 (Homo sapiens, UniProt P11940); experiment: MLLE binding blockers, Cy5 peptide tracer – biochemical, fluorescence polarization, Cy5-PAM2 peptide, secondary, miRNA deadenylation inhibitor project, dose response (AID 602260); assay type: functional; settings: read-out: IC50_Mean
T3 sequence (P11940 whole entry, the tested form may be a part): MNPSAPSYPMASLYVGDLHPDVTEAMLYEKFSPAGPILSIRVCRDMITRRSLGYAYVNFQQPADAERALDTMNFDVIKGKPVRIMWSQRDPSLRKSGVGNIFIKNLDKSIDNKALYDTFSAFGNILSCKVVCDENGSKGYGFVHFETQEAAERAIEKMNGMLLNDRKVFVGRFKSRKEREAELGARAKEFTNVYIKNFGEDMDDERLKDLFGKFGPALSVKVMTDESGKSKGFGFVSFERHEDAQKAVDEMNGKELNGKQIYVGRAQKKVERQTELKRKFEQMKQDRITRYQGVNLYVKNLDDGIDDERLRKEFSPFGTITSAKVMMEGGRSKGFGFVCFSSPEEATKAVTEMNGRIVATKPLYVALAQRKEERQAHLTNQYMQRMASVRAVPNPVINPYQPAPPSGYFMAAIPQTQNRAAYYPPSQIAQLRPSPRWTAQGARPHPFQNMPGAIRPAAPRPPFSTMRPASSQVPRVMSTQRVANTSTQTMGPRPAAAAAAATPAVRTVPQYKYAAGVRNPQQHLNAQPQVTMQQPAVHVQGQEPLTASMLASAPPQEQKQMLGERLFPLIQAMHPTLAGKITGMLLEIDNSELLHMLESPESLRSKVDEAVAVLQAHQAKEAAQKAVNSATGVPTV

[4] = target: T3, Polyadenylate-binding protein 1; experiment: MLLE domain peptide-binding blockers, IC50 – biochemical, fluorescence polarization, FITC-PAM2 peptide, dose response (AID 602259); assay type: functional; settings: read-out: IC50_Mean
[5] = target: T4, Histone-lysine N-methyltransferase NSD2 (Homo sapiens, UniProt O96028); assay type: biochemical
T4 sequence (O96028 whole entry): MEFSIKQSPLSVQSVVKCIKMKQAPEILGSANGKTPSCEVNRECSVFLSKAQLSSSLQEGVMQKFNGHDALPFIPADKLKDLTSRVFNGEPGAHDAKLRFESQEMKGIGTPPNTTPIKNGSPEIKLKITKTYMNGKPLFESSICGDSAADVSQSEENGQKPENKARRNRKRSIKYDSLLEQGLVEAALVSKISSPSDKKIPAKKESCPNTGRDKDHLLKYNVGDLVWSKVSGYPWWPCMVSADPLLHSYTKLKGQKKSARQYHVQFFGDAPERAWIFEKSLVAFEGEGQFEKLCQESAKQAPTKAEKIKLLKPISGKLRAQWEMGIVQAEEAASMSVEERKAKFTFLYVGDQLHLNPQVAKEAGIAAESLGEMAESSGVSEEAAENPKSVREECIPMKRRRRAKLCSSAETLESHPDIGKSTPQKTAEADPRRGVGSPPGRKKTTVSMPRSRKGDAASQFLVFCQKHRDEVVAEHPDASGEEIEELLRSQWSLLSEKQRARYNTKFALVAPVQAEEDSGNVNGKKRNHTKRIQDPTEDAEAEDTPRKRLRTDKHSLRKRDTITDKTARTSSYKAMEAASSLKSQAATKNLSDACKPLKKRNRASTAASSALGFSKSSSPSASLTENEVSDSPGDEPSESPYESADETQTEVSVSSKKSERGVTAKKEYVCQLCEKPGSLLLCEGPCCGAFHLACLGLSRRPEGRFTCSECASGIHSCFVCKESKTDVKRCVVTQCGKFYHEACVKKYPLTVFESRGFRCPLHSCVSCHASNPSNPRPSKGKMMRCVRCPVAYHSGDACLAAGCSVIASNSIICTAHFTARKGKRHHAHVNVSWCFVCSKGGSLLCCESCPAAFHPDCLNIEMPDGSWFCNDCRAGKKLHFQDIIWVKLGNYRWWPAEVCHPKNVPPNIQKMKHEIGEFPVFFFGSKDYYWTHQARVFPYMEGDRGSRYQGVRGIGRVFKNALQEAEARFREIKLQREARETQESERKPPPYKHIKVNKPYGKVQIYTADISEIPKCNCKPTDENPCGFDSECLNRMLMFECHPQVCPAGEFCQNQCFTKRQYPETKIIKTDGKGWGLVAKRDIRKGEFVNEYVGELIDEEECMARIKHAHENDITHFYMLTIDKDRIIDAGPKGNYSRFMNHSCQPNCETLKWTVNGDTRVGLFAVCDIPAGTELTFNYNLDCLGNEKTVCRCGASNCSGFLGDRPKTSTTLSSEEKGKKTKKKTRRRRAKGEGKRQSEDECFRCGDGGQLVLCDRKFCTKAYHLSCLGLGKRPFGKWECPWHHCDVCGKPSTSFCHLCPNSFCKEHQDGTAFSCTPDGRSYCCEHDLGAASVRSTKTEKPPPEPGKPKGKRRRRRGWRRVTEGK

[6] = viability loss in THP-1 monocytes – THP-1 cells, cytotoxicity control for Vif-APOBEC3G degradation inhibitor project, dose response (AID 1117359); assay type: functional; settings: THP-1
[7] = target: Glutathione-S-transferase (Schistosoma japonicum, UniProt Q26513); experiment: GST-antibody interaction or FRET quenching – biochemical, TR-FRET, artefact control for Vif-APOBEC3G degradation inhibitor project, dose response (AID 1117362); assay type: functional
Glutathione-S-transferase, sequence (Q26513 whole entry): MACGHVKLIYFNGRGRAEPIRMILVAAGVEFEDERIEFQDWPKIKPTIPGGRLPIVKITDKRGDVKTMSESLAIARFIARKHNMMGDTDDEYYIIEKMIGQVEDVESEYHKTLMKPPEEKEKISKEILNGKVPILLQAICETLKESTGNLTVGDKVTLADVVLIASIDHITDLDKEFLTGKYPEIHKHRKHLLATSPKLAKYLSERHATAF

[8] = target: NAD-dependent protein deacylase sirtuin-5, mitochondrial (Homo sapiens, UniProt Q9NXA8); experiment: sirtuin-5 deacylation blockers, concentration series – biochemical, fluorescence imaging, cherry-pick, set 5, dose response (AID 720591);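 note: desuccinylation of succinyl peptide AMC substrate read as fluorescence after trypsin release; potency of inhibitors that lower fluorescence and may act on trypsin instead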
NAD-dependent protein deacylase sirtuin-5, mitochondrial, sequence (Q9NXA8 whole entry): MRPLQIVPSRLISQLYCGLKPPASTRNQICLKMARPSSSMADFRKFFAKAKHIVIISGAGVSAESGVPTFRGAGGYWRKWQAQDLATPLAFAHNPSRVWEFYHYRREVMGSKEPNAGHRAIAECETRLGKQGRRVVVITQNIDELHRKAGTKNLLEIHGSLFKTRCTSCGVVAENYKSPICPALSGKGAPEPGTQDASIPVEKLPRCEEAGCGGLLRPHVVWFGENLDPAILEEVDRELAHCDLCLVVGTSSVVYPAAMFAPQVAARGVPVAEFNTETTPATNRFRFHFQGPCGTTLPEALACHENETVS

[9] = growth inhibition of yeast DHODH-expressing 3D7 parasites – SYBR Green, dry powder samples, dose response (AID 1159570); assay type: functional, cell-based;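 note: parasite growth measured after 72 hours of compound exposure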
[10] = P. falciparum Dd2 growth inhibitors, dose response, SYBR Green, cherry-picked samples (AID 1159567); assay type: functional, cell-based
[11] = Dd2 malaria parasite growth inhibition potency – SYBR Green, dry powder samples, dose response (AID 1159566); assay type: functional, cell-based;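 note: potency for growth inhibition with lower SYBR green DNA signal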
[12] = growth inhibition of PfATP4-mutant resistant parasites – NITD609-resistant line, SYBR Green, dry powder, dose response (AID 1159571); assay type: functional, cell-based;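 note: parasites synchronized at ring stage by sorbitol before testing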
[13] = target: Voltage-gated inwardly rectifying potassium channel KCNH2 (Homo sapiens, UniProt Q12809); experiment: concentration-dependent hERG rescue from blockers – cell-based, thallium flux, dose response (AID 2121); assay type: ADME
Voltage-gated inwardly rectifying potassium channel KCNH2, sequence (Q12809 whole entry): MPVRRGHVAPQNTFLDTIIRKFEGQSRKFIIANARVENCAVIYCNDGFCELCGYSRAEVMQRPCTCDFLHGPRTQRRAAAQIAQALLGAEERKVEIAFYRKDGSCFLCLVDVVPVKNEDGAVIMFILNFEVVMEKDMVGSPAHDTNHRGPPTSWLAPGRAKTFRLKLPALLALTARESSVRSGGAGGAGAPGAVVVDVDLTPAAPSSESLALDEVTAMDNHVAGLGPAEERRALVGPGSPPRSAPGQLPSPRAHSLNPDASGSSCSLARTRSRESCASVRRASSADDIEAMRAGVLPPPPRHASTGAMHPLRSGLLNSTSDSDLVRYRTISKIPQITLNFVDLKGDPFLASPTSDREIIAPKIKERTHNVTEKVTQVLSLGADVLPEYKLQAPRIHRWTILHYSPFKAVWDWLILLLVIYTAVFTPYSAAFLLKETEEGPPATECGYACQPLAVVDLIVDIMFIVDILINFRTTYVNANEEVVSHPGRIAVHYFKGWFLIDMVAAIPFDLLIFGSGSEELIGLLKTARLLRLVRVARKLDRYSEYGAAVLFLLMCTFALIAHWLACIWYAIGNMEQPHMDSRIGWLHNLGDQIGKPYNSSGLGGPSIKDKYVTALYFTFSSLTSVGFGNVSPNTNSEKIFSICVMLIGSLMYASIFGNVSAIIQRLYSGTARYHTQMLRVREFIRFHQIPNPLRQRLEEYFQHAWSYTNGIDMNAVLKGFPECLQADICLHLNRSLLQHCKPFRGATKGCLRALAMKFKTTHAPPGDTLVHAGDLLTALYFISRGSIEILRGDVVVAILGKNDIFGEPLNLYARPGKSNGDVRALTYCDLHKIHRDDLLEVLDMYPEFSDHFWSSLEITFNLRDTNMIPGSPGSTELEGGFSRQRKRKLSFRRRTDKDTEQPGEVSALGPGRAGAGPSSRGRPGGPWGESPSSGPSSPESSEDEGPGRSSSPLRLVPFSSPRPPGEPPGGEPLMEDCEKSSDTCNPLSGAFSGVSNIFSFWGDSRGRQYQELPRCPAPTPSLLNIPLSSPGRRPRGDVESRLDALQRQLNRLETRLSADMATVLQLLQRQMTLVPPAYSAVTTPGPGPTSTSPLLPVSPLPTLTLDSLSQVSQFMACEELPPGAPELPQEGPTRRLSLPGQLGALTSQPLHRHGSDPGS

[14] = target: Peroxisome proliferator-activated receptor gamma/Nuclear receptor corepressor 2 (Homo sapiens, UniProt P37231+Q9Y618); experiment: Counterscreen for NR2E3 inverse agonists: TR-FRET-based biochemical high throughput dose response assay to identify inverse agonists of the interaction between peroxisome proliferator-activated receptor gamma (PPARg) and nuclear receptor co-repressor 2 (NCOR2).; assay type: functional
[15] = target: Photoreceptor-specific nuclear receptor (Homo sapiens, UniProt Q9Y5X4); experiment: ligands suppressing NR2E3 nuclear receptor activity – biochemical, TR-FRET, dose response (AID 463256); assay type: functional
Photoreceptor-specific nuclear receptor, sequence (Q9Y5X4 whole entry): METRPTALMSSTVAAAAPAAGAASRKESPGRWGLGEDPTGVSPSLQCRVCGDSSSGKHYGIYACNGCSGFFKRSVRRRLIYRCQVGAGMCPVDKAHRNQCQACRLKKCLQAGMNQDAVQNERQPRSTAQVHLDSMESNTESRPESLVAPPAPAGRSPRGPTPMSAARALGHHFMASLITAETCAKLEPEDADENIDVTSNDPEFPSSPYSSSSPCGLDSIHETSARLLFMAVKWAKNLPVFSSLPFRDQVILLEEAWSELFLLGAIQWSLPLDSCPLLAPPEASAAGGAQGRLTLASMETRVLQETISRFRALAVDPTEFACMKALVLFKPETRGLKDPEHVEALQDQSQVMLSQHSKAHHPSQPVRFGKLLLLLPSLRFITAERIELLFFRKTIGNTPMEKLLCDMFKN

With `CCn1c(C)cc(=S)c2ccccc21` the EC50 [1] was > 300 µM (not active), the EC50 [2] was > 300 µM (not active) and the IC50 [3] was > 66 µM (inactive). The IC50 [4] was > 66 µM (inactive), the AC50 [5] was 17 µM (active) and the CC50 [6] was > 40 µM (active). For the same compound, the IC50 [7] was > 100 µM (active).
For `CCOc1ccc(CCNC(=O)c2cccc(S(=O)(=O)N3CCN(C(C)=O)CC3)c2)cc1OCC`, the AC50 [8] was > 30 µM (inactive).
In the case of `COc1cccc(C#Cc2ccc([C@H]3[C@@H](CO)N(C(=O)C4CCC4)[C@H]3C#N)cc2)c1`, the AC50 [9] is reported as 1.17 µM (active), the AC50 [10] is reported as 1.2 µM (active) and the AC50 [11] is reported as 0.636 µM (active). The AC50 [12] was 1.41 µM (active).
For `CNC(=O)c1ccc(NC(=O)CN2c3cccc4cccc(c34)S2(=O)=O)cc1`, the EC50 [13] was 7.62 µM (active).
For `CC(=O)c1ccc(C(=O)Nc2sc3c(c2C(N)=O)CCN(Cc2ccccc2)C3)cc1`, the EC50 [1] was > 300 µM (not active), the EC50 [2] was > 300 µM (inconclusive) and the IC50 [14] was 4.93 µM (active). The IC50 [15] was 6 µM (active).
With `Cc1ccc(S(=O)(=O)N2C[C@@H]3CCCC[C@@H]3[C@@H](C)[C@H]2c2cn(Cc3ccccc3)c3ccc(F)cc23)cc1` the AC50 [8] was > 30 µM (inactive).
With `CCOc1ccccc1NC(=S)NC(=O)c1ccco1` the EC50 [13] was 1.25 µM (active).
